Laboratory results taken from ChEMBL document CHEMBL3885861, “Open TG-GATES”.

Organism: Rattus norvegicus
Assay: Open TG-GATES - Regimen: Daily Repeat
Type: toxicity, organism-based, Sprague-Dawley
Parameters: regimen Daily Repeat, gender Male, age 6 weeks
Conditions: in vivo, po, 100 mg/kg, route gavage, dose level Middle; for APTT / Bas / Eos / Fbg / Hb / Ht / Lym / MCH / MCHC / MCV / Mono / Neu / PT / Plat / RBC / Ret / WBC: tissue Blood; for KIDNEY_L / KIDNEY_R / KIDNEY_TOTAL: tissue Kidney; for LIVER: tissue Liver; for A/G / ALP / ALT / AST / BUN / CRE / Ca / Cl / DBIL / GLC / IP / K / LDH / Na / PL / RALB / TBIL / TC / TG / TP / gamma-GTP: tissue Plasma

## C[C@]12CCC(=O)C=C1CC[C@@H]1[C@@H]2CC[C@@]2(C)[C@H]1CC[C@]2(C)O [METHYLTESTOSTERONE]
72 h, time 3 day
  TERMINAL_BW: 237.7 g
  APTT: 15.9 s
  Bas: 0%
  Eos: 1%
  Fbg: 325.4 mg/dL
  Hb: 13.7 g/dL
  Ht: 40.1%
  Lym: 73.6%
  MCH: 21.9 pg
  MCHC: 34%
  MCV: 64.5 fL
  Mono: 2.4%
  Neu: 22.6%
  PT: 13 s
  Plat: 107 x10_4/uL
  RBC: 623.4 x10_4/ul
  Ret: 7%
  WBC: 71.4 x10_2/uL
  KIDNEY_L: 1.1 g
  KIDNEY_R: 1 g
  KIDNEY_TOTAL: 2.1 g
  LIVER: 11.9 g
  A/G: 0.9
  ALP: 1787 IU/L
  ALT: 41.8 IU/L
  AST: 65.2 IU/L
  BUN: 14.6 mg/dL
  CRE: 0.2 mg/dL
  Ca: 11.1 mg/dL
  Cl: 107.2 meq/L
  DBIL: 0.02 mg/dL
  GLC: 180 mg/dL
  IP: 8.2 mg/dL
  K: 4.1 meq/L
  LDH: 77.4 IU/L
  Na: 143.4 meq/L
  PL: 135 mg/dL
  RALB: 2.8 g/dL
  TBIL: 0.026 mg/dL
  TC: 55 mg/dL
  TG: 155.2 mg/dL
  TP: 6 g/dL
  gamma-GTP: 1 IU/L
[…], time 7 day
  TERMINAL_BW: 271.1 g
  APTT: 15.7 s
  Bas: 0%
  Eos: 1%
  Fbg: 324.2 mg/dL
  Hb: 13.9 g/dL
  Ht: 40.8%
  Lym: 79%
  MCH: 21 pg
  MCHC: 34.1%
  MCV: 61.4 fL
  Mono: 2.6%
  Neu: 16.8%
  PT: 13.4 s
  Plat: 116 x10_4/uL
  RBC: 663.8 x10_4/ul
  Ret: 5.3%
  WBC: 72.5 x10_2/uL
  KIDNEY_L: 1.1 g
  KIDNEY_R: 1.2 g
  KIDNEY_TOTAL: 2.3 g
  LIVER: 13.1 g
  A/G: 0.9
  ALP: 2042.4 IU/L
  ALT: 46.8 IU/L
  AST: 71.6 IU/L
  BUN: 16.6 mg/dL
  CRE: 0.2 mg/dL
  Ca: 11 mg/dL
  Cl: 105.4 meq/L
  DBIL: 0.028 mg/dL
  GLC: 194.8 mg/dL
  IP: 8 mg/dL
  K: 4 meq/L
  LDH: 100 IU/L
  Na: 143 meq/L
  PL: 133.6 mg/dL
  RALB: 2.7 g/dL
  TBIL: 0.028 mg/dL
  TC: 45.8 mg/dL
  TG: 238.4 mg/dL
  TP: 5.9 g/dL
  gamma-GTP: 1.2 IU/L
[…], time 14 day
  TERMINAL_BW: 314.6 g
  APTT: 19.7 s
  Bas: 0.2%
  Eos: 0.6%
  Fbg: 304 mg/dL
  Hb: 14.3 g/dL
  Ht: 41%
  Lym: 78.2%
  MCH: 20.4 pg
  MCHC: 34.9%
  MCV: 58.5 fL
  Mono: 3.2%
  Neu: 17.2%
  PT: 13.5 s
  Plat: 113.1 x10_4/uL
  RBC: 701.4 x10_4/ul
  Ret: 3.6%
  WBC: 101.8 x10_2/uL
  KIDNEY_L: 1.3 g
  KIDNEY_R: 1.3 g
  KIDNEY_TOTAL: 2.6 g
  LIVER: 15 g
  A/G: 0.8
  ALP: 1318.6 IU/L
  ALT: 64.2 IU/L
  AST: 76.2 IU/L
  BUN: 15 mg/dL
  CRE: 0.2 mg/dL
  Ca: 10.6 mg/dL
  Cl: 105.2 meq/L
  DBIL: 0.018 mg/dL
  GLC: 198.8 mg/dL
  IP: 7.9 mg/dL
  K: 4.1 meq/L
  LDH: 118.2 IU/L
  Na: 141.6 meq/L
  PL: 137.8 mg/dL
  RALB: 2.8 g/dL
  TBIL: 0.026 mg/dL
  TC: 52.8 mg/dL
  TG: 157 mg/dL
  TP: 6.1 g/dL
  gamma-GTP: 1.2 IU/L
[…], time 28 day
  TERMINAL_BW: 402.8 g
  APTT: 17.5 s
  Bas: 0%
  Eos: 1.2%
  Fbg: 337 mg/dL
  Hb: 15.6 g/dL
  Ht: 43.7%
  Lym: 77%
  MCH: 19.9 pg
  MCHC: 35.6%
  MCV: 55.8 fL
  Mono: 2.6%
  Neu: 18.8%
  PT: 13.6 s
  Plat: 99.5 x10_4/uL
  RBC: 783.4 x10_4/ul
  Ret: 3%
  WBC: 101.5 x10_2/uL
  KIDNEY_L: 1.6 g
  KIDNEY_R: 1.5 g
  KIDNEY_TOTAL: 3.2 g
  LIVER: 17.8 g
  A/G: 0.8
  ALP: 1264.2 IU/L
  ALT: 43 IU/L
  AST: 59.8 IU/L
  BUN: 13.8 mg/dL
  CRE: 0.2 mg/dL
  Ca: 11.1 mg/dL
  Cl: 103 meq/L
  DBIL: 0.028 mg/dL
  GLC: 189.2 mg/dL
  IP: 6.4 mg/dL
  K: 3.7 meq/L
  LDH: 99.4 IU/L
  Na: 143 meq/L
  PL: 141 mg/dL
  RALB: 2.8 g/dL
  TBIL: 0.028 mg/dL
  TC: 41.2 mg/dL
  TG: 321.6 mg/dL
  TP: 6.4 g/dL
  gamma-GTP: 1 IU/L
